From US20180028617A1, “METHODS OF TREATING MILD BRAIN INJURY AND POST-TRAUMATIC STRESS DISORDER” (The Regents of the University of California, priority 2015, published 2018)

How the values were obtained:
[1] = system: neutrophil oxidative burst in leukocytes isolated from brain tissue; assay: Oxidative burst (ROS, DHR 123 fluorescence by flow cytometry) in leukocytes isolated from brain tissue after mild brain injury by controlled cortical impact; assay type: in vivo, C57/B6 mice; conditions: for Oxidative burst in inflammatory cells following mBI (flow cytometry peak shift, FIG. 2): subcutaneous ghrelin, compared to untreated mBI, n=3 animals in each group
Procedure: FIG. 1 depicts principle of assaying oxidative burst within inflammatory cells. Dihydrorhodamine 123 (DHR 123) diffuses across the cell membrane. When it encounters reactive oxygen species (ROS), DHR 123 is oxidized and fluoresces green. The fluorescence is then measured and presented as arbitrary fluorescence unit (AFU), wherein higher intensity means greater oxidative burst and, therefore greater concentration of amount of ROS (See Chen, et al., Measurement of oxidative burst in neutrophils,” Methods Mol Biol., 844: 115-124 (2012); which is incorporated herein by reference in its entirety).
Ghrelin administration reduces oxidative burst in inflammatory cells following mBI. Since no well-accepted animal model exists for concussions, a very small cerebral lesion that closely mimics mBI is used as a model of mBI. C57/B6 mice anesthetized with 5% isoflurane in oxygen (1.7 L/min) are given 0.3 mg/kg buprenorphine subcutaneously for analgesia prior to infliction of the mild brain injury. Anesthesia is assessed by paw pinch reflex. After creating a burr hole through the dura with a dental drill, a lesion using a controlled cortical impactor (CCI) is used to create injury 1 mm lateral and posterior to the bregma (5.0 mm/sec at a depth of 1.0 mm).
Animals are separated into three treatment groups: 1) Sham, 2) mBI, and 3) mBI plus ghrelin. A variety of doses can be tested depending upon the particular ghrelin. Ghrelin can be obtained for example from Phoenix Pharmaceuticals, Inc. (Burlingame, Calif.). For example, 1 to 50 μg at one or more time points. As one example, treatment with subcutaneous ghrelin: 1 dose of 10 μg following mBI and additional dose 10 μg 1 hour after. Brain tissue is harvested at 2-8 hours, preferably about 6 hours post-injury. […] The fluorescence is then measured and presented as arbitrary fluorescence unit (AFU), wherein higher intensity means greater oxidative burst and, therefore greater concentration or amount of ROS. […] Oxidative burst, which is a marker for ROS, can be measured by flow cytometry (e.g., FL1 channel with 488-nm laser).

[2] = system: blood brain barrier (BBB) vascular permeability; Aquaporin 4 (AQP-4); conditions: cited from earlier work

Gly-Ser-Ser-Phe-Leu-Ser-Pro-Glu-His-Gln-Arg-Val-Gln-Gln-Arg-Lys-Glu-Ser-Lys-Lys-Pro-Pro-Ala-Lys-Leu-Gln-Pro-Arg (GSSFLSPEHQRVQQRKESKKPPAKLQPR; printed: Gly-Ser-Ser-Phe-Leu-Ser-Pro-Glu-His-Gln-Arg-Val-Gln-Gln-Arg-Lys-Glu-Ser-Lys-Lys-Pro-Pro-Ala-Lys-Leu-Gln-Pro-Arg) [ghrelin, 28-amino acid peptide neuroendocrine hormone, endogenous ligand for growth hormone secretagogue receptor; can include octanoyl acylation; obtainable from Phoenix Pharmaceuticals]
Oxidative burst of ipsilateral whole brain following mild BI (mean fluorescence intensity) ([1]; mild BI + ghrelin (2 doses), subcutaneous 10 μg following mBI and 10 μg 1 hour after, vs 7963±2900 mild BI alone and 4624±1858 sham, p-value of 0.048, n=5): 3257 AFU | Oxidative burst in inflammatory cells following mBI (flow cytometry peak shift, FIG. 2) [1]: lower oxidative burst | Oxidative burst in inflammatory cells following mBI (flow cytometry peak shift, FIG. 2) ([1]; listed as Ghrelin): reduced the oxidative burst | Post-TBI up-regulation of Aquaporin 4 (AQP-4) [2]: prevents post-TBI up-regulation of Aquaporin 4
